Key:
B16-F10 [1] = experiment: Antiproliferative activity against mouse B16-F10 cells incubated for 48 hrs by MTT assay; type: functional, cell-based; conditions: B16-F10, 48 h
A549 = experiment: Antiproliferative activity against human A549 cells incubated for 48 hrs by MTT assay; type: functional, cell-based; conditions: A549, 48 h
HepG2 = experiment: Antiproliferative activity against human HepG2 cells incubated for 48 hrs by MTT assay; type: functional, cell-based; conditions: HepG2, 48 h
MCF7 = experiment: Antiproliferative activity against human MCF7 cells incubated for 48 hrs by MTT assay; type: functional, cell-based; conditions: MCF7, 48 h
B16-F10 [2] = experiment: Inhibition of cell migration in mouse B16-F10 cells assessed as recovery of scratch area at 50 nM incubated for 24 hrs by wound healing assay (reference value: 72.97 %); type: functional; parameters: scale not given: the % may be the effect or the level left
B16-F10 [3] = experiment: Antitumor activity against mouse B16-F10 cells implanted in C57BL/6 mouse at 10 mg/kg measured after 10 days relative to control; type: functional; conditions: B16-F10, 240 h, time 10 day, read-out: TGI

Row | SMILES | IC50 (B16-F10 [1]) [µM] | IC50 (A549) [µM] | IC50 (HepG2) [µM] | IC50 (MCF7) [µM] | Activity (B16-F10 [2]) [%] | inhibition in vivo at 10 mg/kg (B16-F10 [3]) [%]
1 | COc1cc(Nc2nc(-c3cccc4c3ccn4C)nc3ccccc23)cc(OC)c1OC | 0.784 | 1.35 | 0.547 | 0.877 |  | 
2 | COc1cc(Nc2nc(-c3ccc(C)cc3)nc3ccccc23)cc(OC)c1OC | > 50 | 1.83 | 2.44 | > 50 |  | 
3 | COc1cc(Nc2nc(-c3ccccc3)nc3ccccc23)cc(OC)c1OC | 0.884 | 3.96 | 0.807 | 4.89 |  | 
4 | COc1ccc(-c2nccc(C(=O)Nc3cc(OC)c(OC)c(OC)c3)n2)cc1OC | > 50 | > 50 | > 50 | > 50 |  | 
5 | COc1cc(Nc2ccnc(-c3cccc4c3cnn4C)n2)cc(OC)c1OC | 4.57 | 5.55 | 5.92 | 7.12 |  | 
6 | COc1ccc(-c2nccc(Nc3cc(OC)c(OC)c(OC)c3)n2)cn1 | > 50 | 3.09 | > 50 | > 50 |  | 
7 | COc1cc(Nc2ccnc(-c3ccc(C)cc3)n2)cc(OC)c1OC | 7.62 | 2.14 | 1.85 | 5.77 |  | 
8 | COc1ccc(-c2nc(Nc3cc(OC)c(OC)c(OC)c3)c3ccccc3n2)cc1 | > 50 | > 50 | > 50 | > 50 |  | 
9 | COc1cc(Nc2ccnc(-c3ccc(O)c(C)c3)n2)cc(OC)c1OC | 4.97 | 1.08 | 6.53 | 6.74 |  | 
10 | COc1cc(Nc2nc(-c3ccc(F)cc3)nc3ccccc23)cc(OC)c1OC | > 50 | > 50 | > 50 | > 50 |  | 
11 | COc1cc(Nc2ccnc(-c3ccccc3)n2)cc(OC)c1OC | 7.2 | 4.08 | 9.2 | > 50 |  | 
12 | COc1cc(NC(=O)c2ccnc(-c3ccccc3)n2)cc(OC)c1OC | > 50 | 5.38 | 2.32 | > 50 |  | 
13 | COc1cc(Nc2ccnc(-c3ccc4c(cnn4C)c3)n2)cc(OC)c1OC | 1.85 | 0.598 | 1.46 | 1.13 |  | 
14 | COc1cc(NC(=O)c2ccnc(-c3ccc(C)cc3)n2)cc(OC)c1OC | > 50 | 6.08 | > 50 | > 50 |  | 
15 | COc1cc(NC(=O)c2ccnc(-c3cccc4c3ccn4C)n2)cc(OC)c1OC | 2.28 | 3.09 | 1.1 | 1.89 |  | 
16 | COc1cc(Nc2ccnc(-c3ccc(F)cc3)n2)cc(OC)c1OC | 8.25 | 6.51 | 7.94 | > 50 |  | 
17 | COc1cc(Nc2ccnc(-c3ccc4c(ccn4C)c3)n2)cc(OC)c1OC | 1.82 | 2.31 | 4.9 | 5.31 |  | 
18 | COc1cc(Nc2nc(-c3cc(OC)c(OC)c(OC)c3)nc3ccccc23)cc(OC)c1OC | 0.132 | 0.396 | 0.781 | 2.94 |  | 
19 | COc1ccc(-c2nc(Nc3cc(OC)c(OC)c(OC)c3)c3ccccc3n2)cc1OC | 0.331 | 5.6 | > 50 | > 50 |  | 
20 | COc1cc(Nc2ccnc(-c3ccc(C#N)cc3)n2)cc(OC)c1OC | > 50 | 4.76 | 4.33 | > 50 |  | 
21 | COc1cc(NC(=O)c2ccnc(-c3ccc(C(F)(F)F)cc3)n2)cc(OC)c1OC | > 50 | > 50 | > 50 | > 50 |  | 
22 | COc1ccc(-c2nccc(Nc3cc(OC)c(OC)c(OC)c3)n2)cc1 | 2.69 | 2.22 | 1.22 | 7.27 |  | 
23 | COc1cc(NC(=O)c2ccnc(-c3ccc4c(c3)OCCO4)n2)cc(OC)c1OC | > 50 | 3.11 | > 50 | > 50 |  | 
24 | COc1cc2c(c(OC)c1OC)-c1ccc(OC)c(=O)cc1[C@@H](NC(C)=O)CC2 [COLCHICINE] | 0.079 | 0.507 | 0.038 | 0.031 | 33.68 | 72.8
25 | COc1cc(Nc2ccnc(-c3cc(OC)c(OC)c(OC)c3)n2)cc(OC)c1OC | > 50 | > 50 | > 50 | > 50 |  | 
26 | COc1cc(Nc2nc(-c3ccc4c(cnn4C)c3)nc3ccccc23)cc(OC)c1OC | 1.78 | 6.47 | 3.14 | 3.33 |  | 

Reference: ChEMBL document CHEMBL6096652, “Design, synthesis and anti-tumor evaluation of novel pyrimidine and quinazoline analogues” (Eur J Med Chem, 2025)
